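Test compounds were applied to cells in 96-well plates for 48 hours at 5 doses. GI50: concentration for 50% inhibition of growth.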 Active and inactive are the calls of the source. No stated cut-off is given here; in the data, active = GI50 up to about 1.1 µM and inactive = higher.
Legend:
Test in all cases: growth of human tumour cells (NCI), 48 h
786-0 = system: 786-0
A549 = system: A549
ACHN = system: ACHN
CCRF-CEM = system: CCRF-CEM
COLO 205 = system: COLO 205
DMS-114 = system: DMS-114
DMS-273 = system: DMS-273
EKVX = system: EKVX
HCT-116 = system: HCT-116
HCT-15 = system: HCT-15
HL-60 = system: HL-60
HOP-18 = system: HOP-18
HOP-62 = system: HOP-62
HT-29 = system: HT-29
K562 = system: K562
KM-20L2 = system: KM-20L2
KM12 = system: KM12
LOX IMVI = system: LOX IMVI
LXFL 529 = system: LXFL 529
M14 = system: M14
M19-MEL = system: M19-MEL
MOLT-4 = system: MOLT-4
Malme-3M = system: Malme-3M
NCI-H226 = system: NCI-H226
NCI-H23 = system: NCI-H23
NCI-H460 = system: NCI-H460
NCI-H522 = system: NCI-H522
OVCAR-4 = system: OVCAR-4
OVCAR-8 = system: OVCAR-8
RPMI-8226 = system: RPMI-8226
RXF 393 = system: RXF 393
SF-268 = system: SF-268
SF-295 = system: SF-295
SK-MEL-28 = system: SK-MEL-28
SK-MEL-2 = system: SK-MEL-2
SK-MEL-5 = system: SK-MEL-5
SK-OV-3 = system: SK-OV-3
SN12C = system: SN12C
SNB-19 = system: SNB-19
SNB-75 = system: SNB-75
SNB-78 = system: SNB-78
SR = system: SR
SW-620 = system: SW-620
TK-10 = system: TK-10
U-251 = system: U-251
UACC-257 = system: UACC-257
UACC-62 = system: UACC-62
UO-31 = system: UO-31
XF498 = system: XF498
CAKI-1 = system: CAKI-1
DLD-1 = system: DLD-1
HCC 2998 = system: HCC 2998
IGROV-1 = system: IGROV-1
OVCAR-5 = system: OVCAR-5
SF-539 = system: SF-539
OVCAR-3 = system: OVCAR-3

Compound: CC(=O)O[C@]12CCCCCCC1C1(O)C(O)CCC[C@H]12 (stereo partly specified)
- GI50 (786-0): > 100 µM (inactive)
- GI50 (A549): > 100 µM (inactive)
- GI50 (ACHN): > 100 µM (inactive)
- GI50 (CCRF-CEM): > 100 µM (inactive)
- GI50 (COLO 205): > 100 µM (inactive)
- GI50 (DMS-114): > 100 µM (inactive)
- GI50 (DMS-273): > 100 µM (inactive)
- GI50 (EKVX): > 100 µM (inactive)
- GI50 (HCT-116): > 100 µM (inactive)
- GI50 (HCT-15): > 100 µM
- GI50 (HL-60): > 10 µM (inactive)
- GI50 (HOP-18): > 100 µM (inactive)
- GI50 (HOP-62): > 100 µM (inactive)
- GI50 (HT-29): > 100 µM (inactive)
- GI50 (K562): > 100 µM (inactive)
- GI50 (KM-20L2): > 100 µM (inactive)
- GI50 (KM12): > 100 µM (inactive)
- GI50 (LOX IMVI): > 100 µM (inactive)
- GI50 (LXFL 529): > 100 µM (inactive)
- GI50 (M14): > 100 µM (inactive)
- GI50 (M19-MEL): > 100 µM (inactive)
- GI50 (MOLT-4): > 100 µM (inactive)
- GI50 (Malme-3M): > 100 µM (inactive)
- GI50 (NCI-H226): > 100 µM (inactive)
- GI50 (NCI-H23): > 100 µM (inactive)
- GI50 (NCI-H460): > 100 µM (inactive)
- GI50 (NCI-H522): > 100 µM (inactive)
- GI50 (OVCAR-4): > 100 µM (inactive)
- GI50 (OVCAR-8): > 100 µM (inactive)
- GI50 (RPMI-8226): > 100 µM (inactive)
- GI50 (RXF 393): > 100 µM (inactive)
- GI50 (SF-268): > 100 µM (inactive)
- GI50 (SF-295): > 100 µM (inactive)
- GI50 (SK-MEL-28): > 100 µM (inactive)
- GI50 (SK-MEL-2): > 100 µM (inactive)
- GI50 (SK-MEL-5): > 100 µM (inactive)
- GI50 (SK-OV-3): > 100 µM (inactive)
- GI50 (SN12C): > 100 µM (inactive)
- GI50 (SNB-19): > 100 µM (inactive)
- GI50 (SNB-75): > 100 µM (inactive)
- GI50 (SNB-78): > 100 µM (inactive)
- GI50 (SR): > 100 µM (inactive)
- GI50 (SW-620): > 100 µM (inactive)
- GI50 (TK-10): > 100 µM (inactive)
- GI50 (U-251): > 100 µM (inactive)
- GI50 (UACC-257): > 100 µM (inactive)
- GI50 (UACC-62): > 100 µM (inactive)
- GI50 (UO-31): > 100 µM (inactive)
- GI50 (XF498): > 100 µM (inactive)

Compound: COc1ccc(-c2cc3ccccc3[nH]c2=O)cc1OC
- GI50 (786-0): > 100 µM (inactive)
- GI50 (A549): > 100 µM (inactive)
- GI50 (ACHN): > 100 µM (inactive)
- GI50 (CAKI-1): > 100 µM (inactive)
- GI50 (CCRF-CEM): > 100 µM (inactive)
- GI50 (COLO 205): > 100 µM (inactive)
- GI50 (DLD-1): > 100 µM (inactive)
- GI50 (DMS-273): > 100 µM (inactive)
- GI50 (EKVX): > 100 µM (inactive)
- GI50 (HCC 2998): > 100 µM (inactive)
- GI50 (HCT-116): > 100 µM (inactive)
- GI50 (HCT-15): > 100 µM
- GI50 (HL-60): > 100 µM (inactive)
- GI50 (HOP-18): > 100 µM (inactive)
- GI50 (HOP-62): > 100 µM (inactive)
- GI50 (HT-29): > 100 µM (inactive)
- GI50 (IGROV-1): > 100 µM (inactive)
- GI50 (K562): > 100 µM (inactive)
- GI50 (KM-20L2): > 100 µM (inactive)
- GI50 (KM12): > 100 µM (inactive)
- GI50 (LOX IMVI): > 100 µM (inactive)
- GI50 (LXFL 529): > 100 µM (inactive)
- GI50 (M14): > 100 µM (inactive)
- GI50 (M19-MEL): > 100 µM (inactive)
- GI50 (MOLT-4): > 100 µM (inactive)
- GI50 (Malme-3M): > 100 µM (inactive)
- GI50 (NCI-H226): > 100 µM (inactive)
- GI50 (NCI-H23): > 100 µM (inactive)
- GI50 (NCI-H460): > 100 µM (inactive)
- GI50 (NCI-H522): > 100 µM (inactive)
- GI50 (OVCAR-4): > 100 µM (inactive)
- GI50 (OVCAR-5): > 100 µM (inactive)
- GI50 (OVCAR-8): > 100 µM (inactive)
- GI50 (RPMI-8226): > 100 µM (inactive)
- GI50 (RXF 393): 47.5 µM (inactive)
- GI50 (SF-268): > 100 µM (inactive)
- GI50 (SF-295): > 100 µM (inactive)
- GI50 (SF-539): > 100 µM (inactive)
- GI50 (SK-MEL-28): > 100 µM (inactive)
- GI50 (SK-MEL-2): > 100 µM (inactive)
- GI50 (SK-OV-3): > 100 µM (inactive)
- GI50 (SN12C): > 100 µM (inactive)
- GI50 (SNB-19): > 100 µM (inactive)
- GI50 (SNB-75): > 100 µM (inactive)
- GI50 (SNB-78): > 100 µM (inactive)
- GI50 (SR): > 100 µM (inactive)
- GI50 (SW-620): > 100 µM (inactive)
- GI50 (TK-10): > 100 µM (inactive)
- GI50 (U-251): 71.6 µM (inactive)
- GI50 (UACC-257): > 100 µM (inactive)
- GI50 (UACC-62): > 100 µM (inactive)
- GI50 (UO-31): > 100 µM (inactive)
- GI50 (XF498): > 100 µM (inactive)

Compound: COc1ccc(C2C(Cl)C(=O)N2NC(=O)Cc2ccccc2)cc1 (stereo unspecified)
- GI50 (786-0): > 100 µM (inactive)
- GI50 (A549): > 100 µM (inactive)
- GI50 (ACHN): > 100 µM (inactive)
- GI50 (CAKI-1): > 100 µM (inactive)
- GI50 (CCRF-CEM): > 100 µM (inactive)
- GI50 (COLO 205): > 100 µM (inactive)
- GI50 (DLD-1): > 100 µM (inactive)
- GI50 (DMS-273): > 100 µM (inactive)
- GI50 (EKVX): > 100 µM (inactive)
- GI50 (HCC 2998): > 100 µM (inactive)
- GI50 (HCT-116): > 100 µM (inactive)
- GI50 (HCT-15): > 100 µM
- GI50 (HL-60): > 100 µM (inactive)
- GI50 (HOP-18): > 100 µM (inactive)
- GI50 (HOP-62): > 100 µM (inactive)
- GI50 (HT-29): > 100 µM (inactive)
- GI50 (IGROV-1): > 100 µM (inactive)
- GI50 (K562): > 100 µM (inactive)
- GI50 (KM-20L2): > 100 µM (inactive)
- GI50 (KM12): > 100 µM (inactive)
- GI50 (LOX IMVI): > 100 µM (inactive)
- GI50 (LXFL 529): > 100 µM (inactive)
- GI50 (M14): > 100 µM (inactive)
- GI50 (M19-MEL): > 100 µM (inactive)
- GI50 (MOLT-4): > 100 µM (inactive)
- GI50 (Malme-3M): > 100 µM (inactive)
- GI50 (NCI-H226): > 100 µM (inactive)
- GI50 (NCI-H23): > 100 µM (inactive)
- GI50 (NCI-H460): > 100 µM (inactive)
- GI50 (NCI-H522): > 100 µM (inactive)
- GI50 (OVCAR-3): > 100 µM (inactive)
- GI50 (OVCAR-4): > 100 µM (inactive)
- GI50 (OVCAR-5): > 100 µM (inactive)
- GI50 (OVCAR-8): > 100 µM (inactive)
- GI50 (RPMI-8226): > 100 µM (inactive)
- GI50 (RXF 393): > 100 µM (inactive)
- GI50 (SF-268): > 100 µM (inactive)
- GI50 (SF-295): > 100 µM (inactive)
- GI50 (SK-MEL-28): > 100 µM (inactive)
- GI50 (SK-MEL-2): > 100 µM (inactive)
- GI50 (SK-MEL-5): > 100 µM (inactive)
- GI50 (SK-OV-3): > 100 µM (inactive)
- GI50 (SN12C): > 100 µM (inactive)
- GI50 (SNB-19): > 100 µM (inactive)
- GI50 (SNB-75): > 100 µM (inactive)
- GI50 (SNB-78): > 100 µM (inactive)
- GI50 (SR): > 100 µM (inactive)
- GI50 (SW-620): > 100 µM (inactive)
- GI50 (TK-10): > 100 µM (inactive)
- GI50 (U-251): > 100 µM (inactive)
- GI50 (UACC-257): > 100 µM (inactive)
- GI50 (UACC-62): > 100 µM (inactive)
- GI50 (UO-31): > 100 µM (inactive)
- GI50 (XF498): > 100 µM (inactive)
